In patent US20250017252A1, “Fatty acids for boostering ketogenic diet” (N.V. Nutricia, priority 2022, published 2025):
“Also recorded” adds a separate entry of the source.

Columns and labels:
Type in all cases: cell-based
[1] = system: mouse liver cells (Hepa1-6 cell line); test: Ketone (β-hydroxybutyrate) production in mouse liver cells; conditions: for Effect of combining with OA on βHb production vs sum of individual effects: 1 μM to 10 μM + 100 μM OA; for βHb production when combined with oleic acid vs OA alone: 1 μM to 10 μM test nutrient + 100 μM OA; for βHb production when combined with fatty acid blend (K-one) vs blend alone: 1 μM to 10 μM test nutrient + 100 μM fatty acid blend; for Ketone production in the absence of a ketogenic fat blend: 5 μM each, alone or in combination; for βHb production, provided alone: test nutrient alone at 1 μM, 5 μM and 10 μM, no OA or fat blend, 6 hours; for Effect of combining with fatty acid blend on βHb production vs sum of individual effects: with 100 μM K-one fatty acid blend
Experimental: An assay to measure ketone production in mouse liver cells (Hepa1-6 cell line) was used wherein cells were first grown to a monolayer (growth phase), then exposed to starvation to deplete cellular lipid stores and subsequently brought into a ketogenic phase wherein cells were cultured in presence of oleic acid or a ketogenic diet fat blend with or without the presence of one of C2 fatty acid, C4 fatty acid, C6 fatty acid, citric acid and nicotinamide riboside. The ketone body production was subsequently determined by measurement of beta-hydroxybutyrate in the cell culture medium according to the details set out below:
Starvation phase: At the end of the growth phase the cells formed a monolayer. The medium was exchanged for DMEM containing 1 mM glucose and antibiotics (1% penicillin & streptomycin) but no FBS. The medium was further supplemented with L-carnitine (a required co-factor for the uptake of fatty acids into the mitochondria, where fatty acids are turned into ketones). The cells were incubated in this medium for 24 hours. During this time, the cells were vastly deprived of glucose, lipids and hormones contained in FBS, forcing them to consume and empty their lipid stores. […] Moreover, the starvation phase is thought to induce specific metabolic changes that maximize the production of ketones.
Ketogenic phase: At the end of the starvation phase, the medium was exchanged for Krebs-Henseleit buffer (KHB) supplemented with the L-carnitine and the test nutrients (table 1, single fatty acids C2, C4, C6 and citrate, nicotinamide riboside in combination with oleic acid fatty acid blend).
The fatty acid blend has a similar fatty acid composition as the one used in a ketogenic diet (K-one). The content of every fatty acid in the blend is given as the molar ratio to Oleic acid (OA), whose molar content is set to 1. Dilutions of this blend were used to determine the dose response curve in FIGS. 1B and 1D. C2 and C4 are not included in the blend.
KHB is composed of salts and bicarbonate as a chemical buffer to maintain the osmotic pressure and acidity (pH) at physiological levels. Medium and long chain fatty acids are coupled to bovine serum albumin prior to the assay to make them soluble in KHB and allow their efficient uptake by the cells. The coupling is physiological since in humans, medium and long chain fatty acids are normally coupled to albumin for transport in the blood circulation. Short chain fatty acids (C2, C4) were not coupled to albumin in the assay as they are water-soluble and circulate freely in humans. The cells were incubated for 6 hours at 37° C. During this time they produce ketones from the test nutrients with little to no interference from other nutrients and secrete β-hydroxybutyrate (β) into the medium.
β-Hb measurements: At the end of the ketogenic phase, the whole medium was collected and dried by vacuum centrifugation for 20 hours at 21° C. The dry pellet was resuspended in a small volume of assay buffer to yield a 10-20-fold higher β-Hb concentration than in the medium. The samples were deproteinized using spin columns to measure the free unbound fraction of β-Hb. […] The Fluorescence was measured on a fluorescence microplate reader and is directly proportional to the β-Hb concentration in the sample within a range of 0.1 μM to 50 μM β-Hb.

[2] = system: NAD+ depleted mouse liver cells (Hepa1-6 cells); test: NAD+ replenishment of NAD+ depleted mouse liver cells under ketogenic diet-like conditions
From the text: A ketogenic diet treatment leads to great consumption of NAD+ and other metabolically relevant NAD+ derivatives such as NADP+ creating a state of NAD+ exhaustion. Therefore, it was hypothesized that nicotinamide riboside (NR) may replenish NAD+ and thus sustains ketone production more effectively in liver cells than other NAD+ precursors including nicotinamide (NAM), nicotinic acid (NA), Niacin (defined as the combination of NA and NAM) or the amino acid tryptophan (Trp). While NA and NAM have been commonly referred to as vitamin B3, NR is a recently discovered and naturally occurring vitamin B3 member. An assay was developed to measure NAD+ replenishment of NAD+ depleted mouse liver cells (Hepa1-6 cells) by NAD+ precursors under ketogenic diet-like conditions. In this assay, mouse liver cells were starved of glucose and depleted of NAD+ through incubation in a very low glucose (1 mM) medium free of vitamin B3, tryptophan (Trp) and FBS and supplemented with 10 nM of an NAD+ depleting drug called FK866. Thereafter, the cells were fed with NR or NAM or Niacin (combination of NAM and NA in a 1:1 molar ratio) or Trp to replenish NAD+. At the end of the supplementation phase, the cells were scraped and extracted using the NAD+ extraction buffer of the EnzyChrom™ NAD/NADH Assay Kit from BioAssay Systems. The NAD+ content of the cells was determined with the same kit following the manufacturer's manual. The NAD+ measurement is based on a lactate dehydrogenase reaction, in which NAD+ is reduced to NADH, which in turn reduces a formazan (MTT) reagent. The intensity of the reduced product colour, measured at 565 nm, is proportional to the NAD+ concentration in the sample. This assay is highly specific for NAD+ and has minimal interference (<1%) by NADP+ or NADPH.

[3] = system: NAD+ depleted mouse liver cells; test: Ketone production of NAD+ depleted liver cells after NR replenishment; conditions: NR 10 μM, 150 μM and 1000 μM
Experimental: To measure the impact of replenishing NAD+ in liver cells with NR on ketone production, mouse liver cells were nutrient-deprived in medium containing low (1 mM) glucose, no fetal bovine serum, and no NAD+ precursors in the form of vitamin B3 (Niacin, NA, NAM) or Trp, but supplemented with L-carnitine.
Concomitantly the cells were treated with FK866. These conditions created ketogenic diet like nutrient conditions and depleted the cells of NAD+ After 18 hours of incubation, FK866 was removed from the medium and a concentration range of NR was added for the replenishment of NAD+. After 24 hours, the cells were switched to Krebs-Henseleit buffer (KHB) containing L-carnitine and a concentration range (1 μM to 100 μM) of oleic acid, a long chain fatty acid, for 6 hours to induce and measure the production and secretion of b-hydroxybutyrate (βHB) into the medium.

With `CCCC(=O)O` [C4, butyric acid] the “Effect of combining with OA on βHb production vs sum of individual effects” value [1] was “more than additive”, the “βHb production when combined with oleic acid vs OA alone” value (“βHb production … vs OA alone” below) [1] was “more βHb than providing 100 μM OA alone” and the “βHb production when combined with fatty acid blend (K-one) vs blend alone” value (“βHb production when combined … vs blend alone” below) [1] was “more βHb than providing the 100 μM fatty acid blend alone”. For the same molecule, the “Ketone production in the absence of a ketogenic fat blend” value [1] was “hardly any ketones”, the “Production of ketones from fatty acid blend concentration range” value ([1]; fixed 10 μM C4 + 1 μM to 100 μM fatty acid blend vs blend without C4) was “increasingly enhanced the production of ketones” and the “βHb production, provided alone” value [1] was “hardly yielded any βHb; also recorded: no βHb”. The “Effect of combining with fatty acid blend on βHb production vs sum of individual effects” value [1] was “more than additive”.

`O=C(O)CC(O)(CC(=O)O)C(=O)O` [citrate, citric acid] was tested, and the “Increase of ketone production from the fat blend” value ([1]; citrate 200 μM to 1000 μM + 100 μM K-one fat blend) was 10-20%, the “Ketone production, citrate alone” value ([1]; citrate alone, no fat blend) was “no ketones” and the “Effect of combining with fatty acid blend on βHb production vs sum of individual effects” value [1] was “clearly greater than the sum”.

For `CCCCCCCC/C=C\CCCCCCCC(=O)O` [OA, oleic acid, reference compound], the “Concentration at which top-level production of ketones is achieved” value ([1]; dose-response curve, substrate alone) was 100 µM.

`NC(=O)c1ccc[n+]([C@@H]2O[C@H](CO)[C@@H](O)[C@H]2O)c1` [NR, nicotinamide riboside] was tested, and the “NAD+ content replenishment” value ([2]; NAD+ depleted cells, within 24 hours of treatment) was “dose-dependently replenishes NAD+ content to and above this baseline”, the “Increase of NAD+ content vs equimolar NAM or Niacin” value ([2]; high concentrations of 1 mM) was “significantly greater extent than equimolar amounts of NAM or Niacin” and the “Increase of NAD+ content vs equimolar Niacin” value ([2]; lower concentrations below 150 μM) was “greater extent than equimolar amounts of Niacin”. The “Top-level production of ketones” value ([3]; NAD+ depleted cells, oleic acid 1 μM to 100 μM, 6 hours) was “increased the top-level production of ketones” and the “NAD+ content” value ([3]; ketogenic diet like nutrient conditions) was “increased”.

In the case of `CCCCCC(=O)O` [C6, caproic acid], the “βHb production … vs OA alone” value [1] is reported as “potentiates the production of ketones”, the “βHb production when combined … vs blend alone” value [1] is reported as “potentiates the production of ketones” and the “Ketone production in the absence of a ketogenic fat blend” value [1] is reported as “hardly any ketones”. The “Concentration above which the fatty acid starts to be turned into βHb (substrate)” value ([1]; dose-response curve 1 μM to 100 μM, alone) was “above 10 μM” and the “Effect of combining with fatty acid blend on βHb production vs sum of individual effects” value [1] was “more than additive”.

`CC(=O)O` [C2, ethanoic acid] was tested, and the “Effect of combining with OA on βHb production vs sum of individual effects” value [1] was “more than additive”, the “βHb production … vs OA alone” value [1] was “more βHb than 100 μM OA alone” and the “βHb production when combined … vs blend alone” value [1] was “slightly greater production of βHb”. The “βHb production, provided alone” value [1] was “virtually no bHB; also recorded: no βHb” and the “Effect of combining with fatty acid blend on βHb production vs sum of individual effects” value [1] was “more than additive”.

With `O=C(/C=C/c1cccnc1)NCCCCC1CCN(C(=O)c2ccccc2)CC1` [FK866, reference compound] the “Depletion of NAD+ relative to baseline NAD+ content of untreated liver cells” value ([2]; 10 nM FK866) was roughly 70%.
